Results on one compound are retold here after patent publication US6613719B1, “3-(4,5-dihydroisoxazol-3-yl)-substituted benzoylpyrazoles” (BASF Aktiengesellschaft, priority 1999, dated 2003).

The melting point is the temperature of the solid-liquid transition. On to `Cc1c(C(=O)c2cnn(C)c2O)ccc(S(C)(=O)=O)c1C1=NOC(CCl)C1` (stereo not shown) [Compound 2.1, 4-[2-Methyl-3-(5-chloromethyl-4,5-dihydroisoxazol-3-yl)-4-methyl-sulfonylbenzoyl]-5-hydroxy-1-methyl-1H-pyrazole], for which the melting point was in the range of 76 to 78 °C.
